Measurements taken from US9850247B2 (Almac Discovery Limited, priority 2013, dated 2017).
Structures can show the parent of a compound that is named as a salt.

Experiments:
[1] = Kinetic solubility in PBS buffer (Method 5); assay type: physicochemical; settings: aqueous buffer, kinetic from dmso stock; PBS buffer pH 7.4
Description: [formula] [formula] [formula] where V=Incubation volume (μL)/number of cells Method 5: Determination of Kinetic Solubility (in PBS Buffer)
Test compounds (5 μL; 10 mM DMSO stock) were added to 245 μL 10 of PBS buffer pH 7.4 (Dulbecco A) in a Millipore MultiScreen® Solubility Filter plate and mixed at 300 rpm at room temperature on a plate shaker for 90 minutes. Meanwhile 5-points calibration curves for each compound were established in a mixture of acetonitrile/PBS buffer 15 (top concentration 200 μM). After filtration and matrix match, the calibration and assay plates were analysed on a Bioteck Synergy 4 plate reader (240-400 nm). Final concentration of the test compound in the filtrate was calculated using the slope of the calibration curve. All 20 measurements were carried out in triplicate.

[2] = tested on: phospho-cdc2 (Tyr15) in HT-29 cells; test: Effect on phosphorylation of cdc2 at Tyr15, PathScan ELISA (Method 2); assay type: cell-based; settings: Homo sapiens, 8 h, eight hours incubation, read-out: HT29 pCDC2 method 2
Description: Method 2: Determining the Effect of Compounds on the phosphorylation of cdc2 at Tyr15
The colorectal cancer cell lines HT-29 and HCT-116 were purchased from the ATCC and routinely maintained in McCoy's Medium (Invitrogen) supplemented with 10% Foetal Calf Serum.
The cells were trypsinised from their growing vessel and counted, 100 μL of cell suspension containing 6000 cells was pipetted into black 96 well Co-star plates and incubated overnight to allow adherence to the surface at a temperature of 37° C. and an atmosphere of 5% CO2. Test compounds were formulated in DMSO and diluted in foetal calf serum supplemented medium. Incubating medium was removed by aspiration and diluted drug supplemented medium added to each well.
The plate was returned to the incubator for an additional eight hours at 37° C. and an atmosphere of 5% CO2. Post incubation, the drug supplemented medium was aspirated from each well and the cells were washed once in ice-cold phosphate buffered saline (PBS). 100 μL of cell lysis buffer (Cell Signalling Technologies #9803) containing 20 mM Tris, 150 mM NaCl, 1 mM EDTA, 1 mM EGTA, 1% Triton-X100, 2.5 mM sodium pyrophosphate, 1 mM glycerophosphate, 1 mM Na3VO4 and 1 μg/mL leupeptin was added to each well of the 96 well plate and incubated at 4° C. for 30 min. The samples on the plate were snap frozen at −80° C. until required. Immediately before the continuation of the assay, the sample plate was thawed and centrifuged at 4° C. for 10 min and the supernatant transferred to secondary tubes or 96 well plate.
Cell supernatant was mixed in a ratio of 1:1 with sample dilutent buffer and vortexed for one minute. 100 μL of diluted sample was pipetted into pre-coated plates containing a rabbit polyclonal antibody for phospho-cdc2 (Tyr15) (Cell Signalling Technologies PathScan kit #7176). The plate was sealed and incubated overnight at 4° C.
The plate seal was removed and the well contents aspirated, followed by 3×5 min washes with 200 μL of diluted wash buffer. Between each wash the plate was tapped firmly onto blotting paper to ensure the removal of all kit solution. 100 μL of kit detection antibody was added to each well and the plate re-sealed and incubated at 37° C. for 1 h. Post incubation the plate was washed and processed in a similar manner to that previously described.
100 μL of horseradish peroxidise-linked secondary antibody was added to each test well, the plate sealed and incubated for thirty minutes at 37° C. Post incubation, the plate was washed as previously stated, followed by the addition of 100 μL of 3,3′,5,5′ tetramethylbenzidine (TMB reagent). The plate was sealed and incubated at RT for 30 min.
100 μL of stop solution was added to each well and the underside of the plate wiped with a lint-free tissue, prior to spectrophotometric determination. Absorbance from each well was read at 450 nm within 30 min of the addition of the stop solution.
The percentage of phospho-cdc2 was calculated compared to DMSO control and plotted versus the concentration of inhibitor using GraphPad Prism. Data was fitted using non-linear regression analysis and IC50 values generated.

Wee-1 kinase = target: T1, Wee-1 kinase (Homo sapiens, UniProt P30291); test: Measurement of Wee-1 kinase activity (ADP-Glo luminescent kit); assay type: biochemical
T1 construct: purchased Invitrogen PV3817
Outline: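 Activated Wee-1 was pre-incubated 30 min at RT with compound in 40 mM Tris-HCl, 20 mM MgCl2, 0.1 mg/mL BSA and 2 mM DTT. The reaction was started with an aliquot of 2.0 μg/mL poly(Lys,Tyr 4:1) plus 30 μM ATP and run 1 h at RT. ADP-Glo luminescence gave IC50 by non-linear fit.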

[3] = CLint estimates using human liver microsomes (Method 4); assay type: in vitro ADME; settings: pH 7.4, 1 μM compound, read-out: Mics - CLint (HLM CLint)
Outline: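 Compound at 1 μM (0.1% DMSO) incubated with human liver microsomes (0.5 mg protein/mL) in 0.1 M phosphate pH 7.4 at 37 °C, started with 1 mM NADPH. Samples taken 2–50 min, quenched in methanol, measured by LC/MS/MS (MRM). Half-life and CLint derived from the slope of ln peak area versus time.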

[4] = target: T2, human ether a go-go related gene (hERG) K′ channel (Homo sapiens, UniProt Q12809); test: hERG activity, IonWorks patch clamp electrophysiology (Method 6); assay type: cell-based
T2 construct: Essen BioScience
Description: Method 6: Determination of hERG Activity
Compounds were tested for inhibition of the human ether a go-go related gene (hERG) K′ channel using IonWorks patch clamp electrophysiology at Essen BioScience. 8-Point concentration-response curves of the effect of compound on hERG current as a percentage of pre-compound signal were generated using 3-fold serial dilutions from 11 μM and results are reported as IC50 in μM.

[5] = tested on: phospho-cdc2 (Tyr15) in HT-29 cells; test: Effect on Cdc2 phosphorylation at Tyr15, Cell-Based ELISA Base Kit (Method 3); settings: Homo sapiens, HT-29, 8 h, eight hours incubation, normalized to total cdc2, read-out: HT29 pCDC2 method 3
Outline: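 HT-29 cells were treated with compounds for 8 h at 37 °C, then fixed in 4% formaldehyde. Phospho-cdc2 (Tyr15) and total cdc2 were read by dual-fluorogenic cell-based ELISA at 600/450 nm. Phospho signal was normalized to total cdc2 and expressed as % of DMSO control, and EC50 came from non-linear regression.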

T1 sequence (P30291 whole entry): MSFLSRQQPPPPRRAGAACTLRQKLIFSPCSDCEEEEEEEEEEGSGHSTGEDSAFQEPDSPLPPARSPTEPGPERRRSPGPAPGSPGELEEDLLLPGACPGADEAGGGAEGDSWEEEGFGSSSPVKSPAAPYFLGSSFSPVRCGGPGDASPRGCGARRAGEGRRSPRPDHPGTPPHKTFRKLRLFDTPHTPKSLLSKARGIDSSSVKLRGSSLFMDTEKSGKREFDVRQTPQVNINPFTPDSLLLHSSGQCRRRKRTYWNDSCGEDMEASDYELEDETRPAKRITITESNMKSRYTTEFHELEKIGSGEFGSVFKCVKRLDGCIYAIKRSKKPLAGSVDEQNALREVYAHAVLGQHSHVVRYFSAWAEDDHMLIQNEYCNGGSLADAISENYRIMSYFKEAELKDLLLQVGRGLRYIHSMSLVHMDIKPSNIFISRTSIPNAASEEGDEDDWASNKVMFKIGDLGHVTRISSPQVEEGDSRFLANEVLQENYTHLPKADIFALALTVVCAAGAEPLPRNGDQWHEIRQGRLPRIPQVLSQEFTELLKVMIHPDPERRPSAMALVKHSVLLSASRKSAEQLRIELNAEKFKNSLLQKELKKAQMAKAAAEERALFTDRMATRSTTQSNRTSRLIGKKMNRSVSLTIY
T2 sequence (Q12809 whole entry): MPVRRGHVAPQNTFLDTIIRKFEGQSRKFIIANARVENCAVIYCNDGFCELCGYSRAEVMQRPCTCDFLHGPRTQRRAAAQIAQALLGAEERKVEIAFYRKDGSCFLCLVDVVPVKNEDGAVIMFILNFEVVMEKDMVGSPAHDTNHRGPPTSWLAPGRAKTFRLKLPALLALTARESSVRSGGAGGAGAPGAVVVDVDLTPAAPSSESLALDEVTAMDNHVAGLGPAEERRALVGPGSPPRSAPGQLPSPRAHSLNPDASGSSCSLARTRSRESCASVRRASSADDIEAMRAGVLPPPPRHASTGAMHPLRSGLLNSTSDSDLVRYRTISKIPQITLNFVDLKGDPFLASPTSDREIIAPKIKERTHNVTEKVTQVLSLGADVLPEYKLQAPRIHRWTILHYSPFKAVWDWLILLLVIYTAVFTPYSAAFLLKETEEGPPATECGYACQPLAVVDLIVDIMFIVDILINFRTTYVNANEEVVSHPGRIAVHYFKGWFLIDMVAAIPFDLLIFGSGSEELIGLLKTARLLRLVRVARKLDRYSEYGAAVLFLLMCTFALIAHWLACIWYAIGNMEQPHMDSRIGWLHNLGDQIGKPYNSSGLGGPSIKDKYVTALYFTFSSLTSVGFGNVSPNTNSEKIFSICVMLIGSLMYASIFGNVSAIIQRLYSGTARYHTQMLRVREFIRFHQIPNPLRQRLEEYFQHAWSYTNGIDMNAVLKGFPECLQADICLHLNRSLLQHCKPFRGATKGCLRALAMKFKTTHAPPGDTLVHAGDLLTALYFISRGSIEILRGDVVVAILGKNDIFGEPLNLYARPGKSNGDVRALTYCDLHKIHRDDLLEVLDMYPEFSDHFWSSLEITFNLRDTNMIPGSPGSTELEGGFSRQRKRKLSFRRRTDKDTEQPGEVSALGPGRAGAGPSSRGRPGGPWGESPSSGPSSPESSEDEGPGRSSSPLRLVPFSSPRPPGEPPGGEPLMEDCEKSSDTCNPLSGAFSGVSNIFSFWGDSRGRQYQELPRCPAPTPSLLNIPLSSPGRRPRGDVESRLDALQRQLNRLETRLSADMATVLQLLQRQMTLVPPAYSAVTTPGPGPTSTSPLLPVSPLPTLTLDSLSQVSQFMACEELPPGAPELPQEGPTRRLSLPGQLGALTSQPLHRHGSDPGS

Row | solubility kinetic at 90 min [1] [µM] | IC50 [2] [nM] | IC50 (Wee-1 kinase) [nM] | microsomal CLint at 1 μM [3] [µL/min/mg] | SMILES | IC50 [4] [nM] | EC50 [5] [nM]
1 | < 50 | – | – | – | Cc1cc(Nc2ncc3c(=O)n(-c4c(Cl)cccc4Cl)cc(C)c3n2)ccc1N1CCNCC1 [reference compound] | – | –
2 | > 150 | – | – | – | Cc1cc(Nc2ncc3c(n2)N(C)CN(c2c(Cl)cccc2Cl)C3=O)ccc1N1CCNCC1 [drawing 385] | – | –
3 | – | ≥ 1000 | 10 to 100 | ≤ 15 | CN1CN(c2c(Cl)cccc2Cl)C(=O)c2cnc(Nc3ccc(N4CCN(CC(=O)O)CC4)cc3)nc21 [Example 4, 2-(4-(4-((6-(2,6-Dichlorophenyl)-8-methyl-5-oxo-5,6,7,8-tetrahydropyrimido[4,5-d]pyrimidin-2-yl)amino)phenyl)piperazin-1-yl)acetic acid hydrochloride] | – | –
4 | – | 100 to 1000 | 10 to 100 | ≥ 50 | CN1CN(c2c(Cl)cccc2Cl)C(=O)c2cnc(Nc3ccc(CN4CCOCC4)cc3)nc21 [Example 27, 3-(2,6-Dichlorophenyl)-1-methyl-7-((4-(morpholinomethyl)phenyl)amino)-2,3-dihydropyrimido[4,5-d]pyrimidin-4(1H)-one] | – | –
5 | > 150 | – | – | – | CN1CN(c2c(Cl)cccc2Cl)C(=O)c2cnc(Nc3ccc(N4CCNCC4)cc3)nc21 [drawing 383] | – | –
6 | – | 100 to 1000 | 10 to 100 | ≤ 15 | CN1CN(c2c(Cl)cccc2Cl)C(=O)c2cnc(Nc3ccc(N4CCNCC4)c(F)c3)nc21 [Example 7, 3-(2,6-Dichlorophenyl)-7-((3-fluoro-4-(piperazin-1-yl)phenyl)amino)-1-methyl-2,3-dihydropyrimido[4,5-d]pyrimidin-4(1H)-one] | – | –
7 | – | 100 to 1000 | 10 to 100 | ≤ 15 | CN1CN(c2c(Cl)cccc2Cl)C(=O)c2cnc(Nc3ccc(CN4CCNCC4)cc3)nc21 [Example 12, 3-(2,6-Dichlorophenyl)-1-methyl-7-((4-(piperazin-1-ylmethyl)phenyl)amino)-2,3-dihydropyrimido[4,5-d]pyrimidin-4(1H)-one] | > 10000 | –
8 | – | ≥ 1000 | 10 to 100 | ≤ 15 | CC1N(C)c2nc(Nc3ccc(N4CCNCC4)cc3)ncc2C(=O)N1c1c(Cl)cccc1Cl (stereo not drawn) [Example 26, 3-(2,6-Dichlorophenyl)-1,2-dimethyl-7-((4-(piperazin-1-yl)phenyl)amino)-2,3-dihydropyrimido[4,5-d]pyrimidin-4(1H)-one] | – | –
9 | – | ≥ 1000 | ≥ 100 | 15 to 50 | CN1c2nc(Nc3ccc4c(c3)CNCC4)ncc2C(=O)N(c2c(Cl)cccc2Cl)C1c1ccccc1 (racemic) [Example 23, (rac)-3-(2,6-Dichlorophenyl)-1-methyl-2-phenyl-7-((1,2,3,4-tetrahydroisoquinolin-7-yl)amino)-2,3-dihydropyrimido[4,5-d]pyrimidin-4(1H)-one] | – | –
10 | – | 100 to 1000 | ≤ 10 | ≤ 15 | CN1CN(c2c(Cl)cccc2Cl)C(=O)c2cnc(Nc3ccc(N4CCNCC4)c(CO)c3)nc21 [Example 10, 3-(2,6-Dichlorophenyl)-7-((3-(hydroxymethyl)-4-(piperazin-1-yl)phenyl)amino)-1-methyl-2,3-dihydropyrimido[4,5-d]pyrimidin-4(1H)-one] | > 10000 | –
11 | < 50 | – | – | – | Cc1cn(-c2c(Cl)cccc2Cl)c(=O)c2cnc(Nc3ccc(N4CCNCC4)cc3)nc12 [reference compound] | – | –
12 | – | 100 to 1000 | 10 to 100 | ≥ 50 | CN1CCN(Cc2ccc(Nc3ncc4c(n3)N(C)CN(c3c(Cl)cccc3Cl)C4=O)cc2)CC1 [Example 29, 3-(2,6-Dichlorophenyl)-1-methyl-7-((4-((4-methylpiperazin-1-yl)methyl)phenyl)amino)-2,3-dihydropyrimido[4,5-d]pyrimidin-4(1H)-one] | – | –
13 | – | ≥ 1000 | 10 to 100 | – | CN1CN(c2c(Cl)cccc2Cl)C(=O)c2cnc(Nc3ccc(S(C)(=N)=O)cc3)nc21 (racemic) [Example 30, (rac)-3-(2,6-Dichlorophenyl)-1-methyl-7-((4-(S-methylsulfonimidoyl)phenyl)amino)-2,3-dihydropyrimido[4,5-d]pyrimidin-4(1H)-one] | – | –
14 | – | 100 to 1000 | 10 to 100 | ≤ 15 | O=C1c2cnc(Nc3ccc(N4CCNCC4)cc3)nc2N2CCCC2N1c1c(Cl)cccc1Cl (stereo not drawn) [Example 28, 6-(2,6-Dichlorophenyl)-2-((4-(piperazin-1-yl)phenyl)amino)-6a,7,8,9-tetrahydropyrimido[5,4-e]pyrrolo[1,2-a]pyrimidin-5(6H)-one] | – | –
15 | – | 100 to 1000 | 10 to 100 | ≤ 15 | O=C1c2cnc(Nc3ccc(N4CCNCC4)cc3)nc2NCN1c1c(Cl)cccc1Cl [Example 9, 3-(2,6-Dichlorophenyl)-7-((4-(piperazin-1-yl)phenyl)amino)-2,3-dihydropyrimido[4,5-d]pyrimidin-4(1H)-one] | – | –
16 | – | 100 to 1000 | ≤ 10 | 15 to 50 | CN1CN(c2c(Cl)cccc2Cl)C(=O)c2cnc(Nc3ccc(N4CCN[C@H](CO)C4)cc3)nc21 [Example 20, (S)-3-(2,6-Dichlorophenyl)-7-((4-(3-(hydroxymethyl)piperazin-1-yl)phenyl)amino)-1-methyl-2,3-dihydropyrimido[4,5-d]pyrimidin-4(1H)-one] | > 10000 | –
17 | – | – | 10 to 100 | ≤ 15 | CCN1CN(c2c(Cl)cccc2Cl)C(=O)c2cnc(Nc3ccc(N4CCNCC4)cc3)nc21 [Example 169, 3-(2,6-dichlorophenyl)-1-ethyl-7-((4-(piperazin-1-yl)phenyl)amino)-2,3-dihydropyrimido[4,5-d]pyrimidin-4(1H)-one] | – | ≥ 1000
